Measured values as given in patent US20240208992A1, “MACROCYCLES AS CFTR MODULATORS” (Idorsia Pharmaceuticals Ltd, priority 2021, published 2024).

Target: human F508del-CFTR (Homo sapiens, UniProt P13569, DEL508-508)
Assay: F508del-CFTR cell surface expression (corrector activity), DiscoveRx ß-galactosidase complementation chemiluminescence assay in recombinant U2OS cell line;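 also: U2OS cells co-expressing ProLink-tagged F508del-CFTR and a membrane-anchored enzyme acceptor, where more surface CFTR restores β-galactosidase activity measured by chemiluminescence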
Details: for EC50: EC50, F508del-CFTR cell surface expression, U2OS cells, 16h compound incubation, geomean values; for Emax: U2OS, in relation to Emax of corrector lumacaftor (=100%), arithmetic mean values

Sequence of human F508del-CFTR (P13569 with tags, fused parts or gaps DEL508-508): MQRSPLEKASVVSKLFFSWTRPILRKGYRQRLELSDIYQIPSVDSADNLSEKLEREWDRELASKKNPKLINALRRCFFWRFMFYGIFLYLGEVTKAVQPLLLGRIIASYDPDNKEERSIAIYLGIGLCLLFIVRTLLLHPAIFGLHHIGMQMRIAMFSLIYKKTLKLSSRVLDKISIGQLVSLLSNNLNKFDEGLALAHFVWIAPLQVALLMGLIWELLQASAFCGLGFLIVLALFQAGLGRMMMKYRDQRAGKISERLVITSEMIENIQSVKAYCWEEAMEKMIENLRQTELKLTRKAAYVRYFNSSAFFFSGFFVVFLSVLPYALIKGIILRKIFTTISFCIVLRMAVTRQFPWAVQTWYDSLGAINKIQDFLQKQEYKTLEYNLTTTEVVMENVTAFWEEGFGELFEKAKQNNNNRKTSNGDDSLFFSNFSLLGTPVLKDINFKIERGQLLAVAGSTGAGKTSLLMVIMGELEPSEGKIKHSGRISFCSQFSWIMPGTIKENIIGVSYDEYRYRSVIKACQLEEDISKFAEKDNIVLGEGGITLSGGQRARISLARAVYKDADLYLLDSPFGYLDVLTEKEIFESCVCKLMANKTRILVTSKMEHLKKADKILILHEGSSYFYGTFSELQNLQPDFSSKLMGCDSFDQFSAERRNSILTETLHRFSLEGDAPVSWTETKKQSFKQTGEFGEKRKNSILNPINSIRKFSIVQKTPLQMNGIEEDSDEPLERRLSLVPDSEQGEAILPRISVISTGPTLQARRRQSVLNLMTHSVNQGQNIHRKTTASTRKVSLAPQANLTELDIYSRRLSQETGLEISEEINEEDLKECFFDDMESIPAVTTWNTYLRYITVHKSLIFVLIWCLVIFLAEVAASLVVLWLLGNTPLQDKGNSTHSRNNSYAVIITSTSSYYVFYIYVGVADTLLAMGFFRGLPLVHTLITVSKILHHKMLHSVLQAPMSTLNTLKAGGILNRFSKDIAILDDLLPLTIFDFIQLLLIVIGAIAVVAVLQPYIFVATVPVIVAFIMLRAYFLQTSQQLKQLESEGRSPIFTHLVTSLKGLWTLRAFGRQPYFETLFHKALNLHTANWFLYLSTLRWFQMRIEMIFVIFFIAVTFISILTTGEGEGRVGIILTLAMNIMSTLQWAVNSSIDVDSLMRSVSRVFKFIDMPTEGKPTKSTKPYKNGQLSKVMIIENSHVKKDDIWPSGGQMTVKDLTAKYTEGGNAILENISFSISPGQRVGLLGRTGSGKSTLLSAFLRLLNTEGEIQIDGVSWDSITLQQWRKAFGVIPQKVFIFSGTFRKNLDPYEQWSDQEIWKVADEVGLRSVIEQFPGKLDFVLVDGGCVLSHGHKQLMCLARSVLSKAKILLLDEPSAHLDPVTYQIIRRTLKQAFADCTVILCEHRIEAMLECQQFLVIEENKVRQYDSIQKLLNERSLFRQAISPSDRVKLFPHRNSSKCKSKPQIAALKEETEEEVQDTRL

Structure (SMILES) | EC50 [nM] | Emax [%]
COc1nccc2c1C(=O)N[C@H](C(=O)NCCc1noc(C3CC3)n1)CC(=O)N(C)[C@@H](CC(C)C)C(=O)N(C)[C@H](CCc1nc(-c3ccccc3)no1)C(=O)N[C@H](Cc1ccccc1)CO2 [Example 571, (3R,6R,9S,13S)-3-benzyl-N-(2-(5-cyclopropyl-1,2,4-oxadiazol-3-yl)ethyl)-9-isobutyl-16-methoxy-7,10-dimethyl-5,8,11,15-tetraoxo-6-(2-(3-phenyl-1,2,4-oxadiazol-5-yl)ethyl)-2,3,4,5,6,7,8,9,10,11,12,13,14,15-tetradecahydropyrido[3,4-p][1]oxa[4,7,10,14]tetraazacycloheptadecine-13-carboxamide] | 47 | 347
COc1cccc(CCNC(=O)[C@@H]2CC(=O)N(C)[C@@H](CC(C)C)C(=O)N(C)[C@@H](C)C(=O)N[C@H](Cc3ccccc3)COc3cnc4ccccc4c3C(=O)N2)c1 [Example 572, (3S,7S,10S,13R)-13-benzyl-7-isobutyl-N-(3-methoxyphenethyl)-6,9,10-trimethyl-1,5,8,11-tetraoxo-1,2,3,4,5,6,7,8,9,10,11,12,13,14-tetradecahydro-[1]oxa[4,7,10,14]tetraazacycloheptadecino[17,16-c]quinoline-3-carboxamide] | 701 | 200
Cc1cc(CCNC(=O)[C@@H]2CC(=O)N(C)[C@@H](CC(C)C)C(=O)N(C)[C@H](C)C(=O)N[C@H](Cc3ccccc3)COc3cnc4ccccc4c3C(=O)N2)on1 [Example 573, (3S,7S,10R,13R)-13-benzyl-7-isobutyl-6,9,10-trimethyl-N-(2-(3-methylisoxazol-5-yl)ethyl)-1,5,8,11-tetraoxo-1,2,3,4,5,6,7,8,9,10,11,12,13,14-tetradecahydro-[1]oxa[4,7,10,14]tetraazacycloheptadecino[17,16-c]quinoline-3-carboxamide] | 423 | 306
CC(C)C[C@H]1C(=O)N(C)[C@H](C)C(=O)N[C@H](Cc2ccccc2)COc2cnc3ccccc3c2C(=O)N[C@H](C(=O)NCCc2cc(C3CC3)no2)CC(=O)N1C [Example 574, (3S,7S,10R,13R)-13-benzyl-N-(2-(3-cyclopropylisoxazol-5-yl)ethyl)-7-isobutyl-6,9,10-trimethyl-1,5,8,11-tetraoxo-1,2,3,4,5,6,7,8,9,10,11,12,13,14-tetradecahydro-[1]oxa[4,7,10,14]tetraazacycloheptadecino[17,16-c]quinoline-3-carboxamide] | 308 | 319
COc1nccc2c1C(=O)N[C@H](C(=O)NCCc1noc(C3CC3)n1)CC(=O)N(C)[C@@H](CC(C)C)C(=O)N(C)[C@@H](CCc1nc(-c3ccccc3)no1)C(=O)N[C@H](Cc1ccccc1)CO2 [Example 577, (3R,6S,9S,13S)-3-benzyl-N-(2-(5-cyclopropyl-1,2,4-oxadiazol-3-yl)ethyl)-9-isobutyl-16-methoxy-7,10-dimethyl-5,8,11,15-tetraoxo-6-(2-(3-phenyl-1,2,4-oxadiazol-5-yl)ethyl)-2,3,4,5,6,7,8,9,10,11,12,13,14,15-tetradecahydropyrido[3,4-p][1]oxa[4,7,10,14]tetraazacycloheptadecine-13-carboxamide] | 600 | 268
Cc1cc(CCNC(=O)[C@@H]2CC(=O)N(C)[C@@H](CC(C)C)C(=O)N(C)[C@H](CCOCc3ccccc3)C(=O)N[C@H](Cc3ccccc3)COc3cnc4ccccc4c3C(=O)N2)on1 [Example 578, (3S,7S,10R,13R)-13-benzyl-10-(2-(benzyloxy)ethyl)-7-isobutyl-6,9-dimethyl-N-(2-(3-methylisoxazol-5-yl)ethyl)-1,5,8,11-tetraoxo-1,2,3,4,5,6,7,8,9,10,11,12,13,14-tetradecahydro-[1]oxa[4,7,10,14]tetraazacycloheptadecino[17,16-c]quinoline-3-carboxamide] | 53 | 319
Cc1cc(CCNC(=O)[C@@H]2CC(=O)N(C)[C@@H](CC(C)C)C(=O)N(C)[C@@H](CCOCc3ccccc3)C(=O)N[C@H](Cc3ccccc3)COc3cnc4ccccc4c3C(=O)N2)on1 [Example 579, (3S,7S,10S,13R)-13-benzyl-10-(2-(benzyloxy)ethyl)-7-isobutyl-6,9-dimethyl-N-(2-(3-methylisoxazol-5-yl)ethyl)-1,5,8,11-tetraoxo-1,2,3,4,5,6,7,8,9,10,11,12,13,14-tetradecahydro-[1]oxa[4,7,10,14]tetraazacycloheptadecino[17,16-c]quinoline-3-carboxamide] | 399 | 131
COc1cc(CCNC(=O)[C@@H]2CC(=O)N(C)[C@@H](CC(C)C)C(=O)N3CCC4(CC4)C[C@@H]3C(=O)N[C@H](Cc3ccccc3)COc3cc(C)nc(OC)c3C(=O)N2)on1 [Example 580, (7′S,11′S,17a′R,20′R)-20′-benzyl-11′-isobutyl-4′-methoxy-N-(2-(3-methoxyisoxazol-5-yl)ethyl)-2′,10′-dimethyl-5′,9′,12′,18′-tetraoxo-5′,6′,7′,8′,9′,10′,11′,12′,14′,15′,17′,17a′,18′,19′,20′,21′-hexadecahydrospiro[cyclopropane-1,16′-dipyrido[2,1-f:3′,4′-p][1]oxa[4,7,10,14]tetraazacycloheptadecine]-7′-carboxamide] | 198 | 319
[2H]C([2H])([2H])Oc1nc(C)cc2c1C(=O)N[C@H](C(=O)NCCc1cc(OC)no1)CC(=O)N(C)[C@@H](CC(C)C)C(=O)N1CCCC[C@@H]1C(=O)N[C@H](Cc1ccccc1)CO2 [Example 581, (7S,11S,17aR,20R)-20-benzyl-11-isobutyl-4-(methoxy-d3)-N-(2-(3-methoxyisoxazol-5-yl)ethyl)-2,10-dimethyl-5,9,12,18-tetraoxo-5,6,7,8,9,10,11,12,15,16,17,17a,18,19,20,21-hexadecahydro-14H-dipyrido[2,1-f:3′,4′-p][1]oxa[4,7,10,14]tetraazacycloheptadecine-7-carboxamide] | 300 | 303
COc1cc(CCNC(=O)[C@@H]2CC(=O)N(C)[C@@H](CC(C)C)C(=O)N(CCC3CCCCC3)CC(=O)N[C@H](Cc3ccccc3)COc3ccnc(OC)c3C(=O)N2)on1 [Example 582, (3R,9S,13S)-3-benzyl-7-(2-cyclohexylethyl)-9-isobutyl-16-methoxy-N-(2-(3-methoxyisoxazol-5-yl)ethyl)-10-methyl-5,8,11,15-tetraoxo-2,3,4,5,6,7,8,9,10,11,12,13,14,15-tetradecahydropyrido[3,4-p][1]oxa[4,7,10,14]tetraazacycloheptadecine-13-carboxamide] | 116 | 279
Cc1ccc2c(c1)OC[C@@H](Cc1ccccc1)NC(=O)CN(C)C(=O)[C@H](CC(C)C)N(C)C(=O)C[C@@H](C(=O)NCCc1ccc3c(c1)OCO3)NC2=O [Example 583, (3R,9S,13S)-N-(2-(benzo[d][1,3]dioxol-5-yl)ethyl)-3-benzyl-9-isobutyl-7,10,18-trimethyl-5,8,11,15-tetraoxo-2,3,4,5,6,7,8,9,10,11,12,13,14,15-tetradecahydrobenzo[p][1]oxa[4,7,10,14]tetraazacycloheptadecine-13-carboxamide] | 339 | 90
